Key:
Format in all cases: cell-based
[1] = tested on: SOS response (LexA auto-cleavage) in E. coli; assay: SOS induction, LexA-controlled GFP DNA damage sensor; conditions: 5 μg/mL Amp, 5 μg/mL Kan, 25 ng/mL Nor; 3 hours after addition
Procedure: FIG. 37 is a set of two graphs showing SOS induction in E. coli by bactericidal antibiotics. Activation of the SOS response was monitored using an engineered sensor construct that employs the LexA repressor for control of Green Fluorescent Protein (GFP) expression. Shown are representative GFP histogram measurements taken 3 hours after addition of a, bactericidal antibiotics (5 μg/mL Amp, 5 μg/mL Kan, 25 ng/mL Nor). b, Log change in CFU/mL of ΔrecA E. coli following exposure to 5 μg/mL Kanamycin (open diamonds), 25 ng/mL Norfloxacin (open triangles), and 5 μg/mL Ampicillin (open circles). For comparison, CFU/mL are also shown for widltype E. coli exposed to 5 μg/mL Kanamycin (diamonds), 25 ng/mL Norfloxacin (triangles), and 5 μg/mL Ampicillin (circles), as well as a lower concentration of norfloxacin in these experiments to highlight the significant increase in killing in a recA knockout.
DNA damage sensor construction. The DNA sensor construct with ampicillin resistance was described previously (D. J. Dwyer et al., “Superoxide and hydroxyl radicals contribute to gyrase inhibitor-mediated cell death in E. coli”, 2007 accepted by Mol. Syst. Biol., which is incorporated herein by reference in its entirety).
Hydroxyl radical and DNA damage sensor experiments using the flow cytometer. […]
Hydroxyl radical are extremely toxic, and will readily damage membrane lipids, proteins and DNA. […]

E. coli MG1655 = assay: Survival assay (CFU) of E. coli MG1655 recA+ / recA− after exposure to Nor; conditions: wild type background, 3 hours of exposure to Nor 0.1 μg/mL
Procedure: The ability of these fours strains to survive exposure to Nor was then tested. The experiment was performed as follows. Cultures were grown to early log phase in LB at 37° C. with shaking. At the 0 time point Nor was added to the cultures to a final concentration of 0.1 μg/mL. This concentration of Nor is just below the MIC for strain MG1655 under these growth conditions. Samples of the cells were collected and washed in PBS at 0, 30, 90 and 180 min time points. The number of viable cells was determined by plating the cells from each time point on LB agar and counting colonies. The CFU counts were normalized based on the time 0 time point inoculum for each culture (i.e., the CFU count obtained from the 0 time point inoculum was taken to represent 100% survival) and the log % survival was plotted (FIG. 3).
The recA deletion caused a 10,000 fold increase in quinolone sensitivity in a wild type background after 3 hours of exposure to Nor. […] In addition, inhibiting the expression and/or activity of E. coli RecA (or its homolog in other bacteria) is expected to render bacterial strains that have acquired resistance to quinolones (e.g., due to mutation in one or more subunits of the bacterial gyrase or topoisomerase IV and/or due to increased copy number of a gene encoding one of these polypeptides) sensitive once again to these compounds.

S. aureus strain RN4220 = assay: MIC of Nor for S. aureus RN4220 and RN4220 recA−; conditions: Staphylococcus aureus
Procedure: The growth and response to quinolone of S. aureus strain RN4220 (wild type) and its recA^− derivative (RN4220 recA^−) were first examined. These strains have been described in the literature (Bayles et al., 1994). The RN4220 recA null mutant (RN4220 recA^−) contains the recA569 allele and is referred to KB103 in Bayles, et al., 1994. […] MICs were determined as described above.
Further details of the assay are as follows: Overnight mutant MG1655 or Staph cultures of clones were grown in 5 mL of LB with appropriate selective agents at 37° C. with shaking. A morning culture was started in a 96 well plate with 16 μL of cells into 1.6 mL of LB and the appropriate plasmid selective agent. […] Serial dilutions were done with 100 μL of drug into 100 μL of H2O. […] 20 μL of each log phase culture was put into a well of one row of a 96 well plate containing […] of LB and the appropriate selective agent. 4.5 μL of each drug concentration was arrayed into the 8 rows of a sterile 300 μL 96-well plate. 250 μL of inoculated culture was added to each column of the sterile 300 μL 96-well plate with drug. The final plate has a different clone in each column and a different Norfloxacin concentration in each row. Plates were grown overnight at 37° C. with shaking. The OD600 of the plate was measured after 16 hours.

## CCn1cc(C(=O)O)c(=O)c2cc(F)c(N3CCNCC3)cc21 [Nor, norfloxacin]
[1]
  SOS activity (LexA-driven GFP expression): significant increase in SOS activity
E. coli MG1655
  increase in quinolone sensitivity caused by recA deletion: 10,000 fold
S. aureus strain RN4220; RN4220, RN4220
  MIC: 1.53 µg/mL
S. aureus strain RN4220; RN4220, RN4220 recA−
  MIC: 0.38 µg/mL

— patent US20090264342A1, “COMPOSITIONS AND METHODS FOR ANTIBIOTIC POTENTIATION AND DRUG DISCOVERY” (priority 2006, published 2009)
